Measurements taken from patent US20230212142A9, “Substituted 5-Cyclopropyl-1H-pyrazole-3-yl-amine Derivatives as Selective CDK12/13 Inhibitors” (Aurigene Discovery Technologies Limited, priority 2019, published 2023).

Experiments:
[1] = molecular target: CDK12 (Homo sapiens, UniProt Q9NYV4); assay: Biochemical assay for CDK12 (kinase-tagged phage / qPCR competition binding); set-up: host or cells: E. coli BL21-derived host (T7 phage display) or HEK-293
Procedure: Kinase-tagged T7 phage strains were grown in parallel in 24-well blocks in an E. coli host derived from the BL21 strain. E. coli were grown to log-phase and infected with T7 phage from a frozen stock (multiplicity of infection=0.4) and incubated with shaking at 32° C. until lysis (90-150 minutes). The lysates were centrifuged (6,000×g) and filtered (0.2 μm) to remove cell debris. The remaining kinases were produced in HEK-293 cells and subsequently tagged with DNA for qPCR detection. Streptavidin-coated magnetic beads were treated with biotinylated small molecule ligands for 30 minutes at room temperature to generate affinity resins for kinase assays. The liganded beads were blocked with excess biotin and washed with blocking buffer (SeaBlock (Pierce), 1% BSA, 0.05% Tween 20, 1 mM
DTT) to remove unbound ligand and to reduce non-specific phage binding. Binding reactions were assembled by combining kinases, liganded affinity beads, and test compounds in lx binding buffer (20% SeaBlock, 0.17×PBS, 0.05% Tween 20, 6 mM DTT). Test compounds were prepared as 40× stocks in 100% DMSO and directly diluted into the assay. All reactions were performed in polypropylene 384-well plates in a final volume of 0.02 ml. The assay plates were incubated at room temperature with shaking for 1 hour and the affinity beads were washed with wash buffer (1 PBS, 0.05% Tween 20). The beads were then re-suspended in elution buffer (1× PBS, 0.05% Tween 20, 0.5 μM non-biotinylated affinity ligand) and incubated at room temperature with shaking for 30 minutes. The kinase concentration in the eluates was measured by qPCR.

[2] = molecular target: CDK13 (Homo sapiens, UniProt Q14004); assay: Biochemical assay for CDK13 (LanthaScreen Eu Kinase Binding Assay); conditions: kinase tracer 236 100 nM, CDK13 5 nM
Sequence of CDK13 (Q14004 whole entry, species assumed): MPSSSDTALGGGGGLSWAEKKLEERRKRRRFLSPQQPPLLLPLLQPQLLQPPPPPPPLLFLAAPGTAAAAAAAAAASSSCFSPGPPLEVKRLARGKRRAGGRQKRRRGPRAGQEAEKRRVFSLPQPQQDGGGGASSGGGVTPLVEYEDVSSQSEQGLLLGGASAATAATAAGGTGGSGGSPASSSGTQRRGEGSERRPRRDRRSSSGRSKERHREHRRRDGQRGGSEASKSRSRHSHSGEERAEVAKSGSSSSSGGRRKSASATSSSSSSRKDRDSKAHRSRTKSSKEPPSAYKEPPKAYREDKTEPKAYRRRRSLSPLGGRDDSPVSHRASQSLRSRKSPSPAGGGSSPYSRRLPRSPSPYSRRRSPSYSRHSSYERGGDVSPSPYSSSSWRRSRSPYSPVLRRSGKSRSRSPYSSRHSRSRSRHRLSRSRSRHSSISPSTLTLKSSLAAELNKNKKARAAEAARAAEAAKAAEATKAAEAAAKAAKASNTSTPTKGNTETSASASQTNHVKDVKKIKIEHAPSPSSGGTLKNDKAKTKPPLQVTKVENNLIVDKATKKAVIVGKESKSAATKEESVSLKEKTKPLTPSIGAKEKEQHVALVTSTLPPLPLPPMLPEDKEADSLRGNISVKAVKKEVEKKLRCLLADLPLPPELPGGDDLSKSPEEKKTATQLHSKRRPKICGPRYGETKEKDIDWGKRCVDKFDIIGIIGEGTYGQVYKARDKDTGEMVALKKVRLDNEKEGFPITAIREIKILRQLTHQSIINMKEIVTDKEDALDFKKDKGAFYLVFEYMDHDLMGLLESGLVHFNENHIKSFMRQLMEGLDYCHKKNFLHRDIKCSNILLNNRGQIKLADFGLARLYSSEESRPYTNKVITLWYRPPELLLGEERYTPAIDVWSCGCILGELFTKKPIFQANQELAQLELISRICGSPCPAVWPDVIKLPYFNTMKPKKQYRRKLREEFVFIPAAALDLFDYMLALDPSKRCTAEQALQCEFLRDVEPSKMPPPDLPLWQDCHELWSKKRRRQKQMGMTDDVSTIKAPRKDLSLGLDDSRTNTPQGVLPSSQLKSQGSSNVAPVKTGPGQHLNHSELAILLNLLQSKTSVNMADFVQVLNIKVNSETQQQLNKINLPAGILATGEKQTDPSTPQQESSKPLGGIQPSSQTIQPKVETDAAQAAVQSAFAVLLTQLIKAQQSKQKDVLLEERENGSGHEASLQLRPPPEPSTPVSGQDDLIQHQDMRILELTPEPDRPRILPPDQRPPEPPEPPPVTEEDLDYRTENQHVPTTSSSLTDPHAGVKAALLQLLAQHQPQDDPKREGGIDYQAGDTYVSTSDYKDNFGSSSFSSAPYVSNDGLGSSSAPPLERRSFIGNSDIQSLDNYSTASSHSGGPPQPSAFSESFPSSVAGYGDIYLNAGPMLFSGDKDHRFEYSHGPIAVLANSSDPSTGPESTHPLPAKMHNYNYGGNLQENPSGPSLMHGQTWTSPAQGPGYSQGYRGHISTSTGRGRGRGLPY
Sequence of CDK13 (O75909 whole entry partner, species assumed): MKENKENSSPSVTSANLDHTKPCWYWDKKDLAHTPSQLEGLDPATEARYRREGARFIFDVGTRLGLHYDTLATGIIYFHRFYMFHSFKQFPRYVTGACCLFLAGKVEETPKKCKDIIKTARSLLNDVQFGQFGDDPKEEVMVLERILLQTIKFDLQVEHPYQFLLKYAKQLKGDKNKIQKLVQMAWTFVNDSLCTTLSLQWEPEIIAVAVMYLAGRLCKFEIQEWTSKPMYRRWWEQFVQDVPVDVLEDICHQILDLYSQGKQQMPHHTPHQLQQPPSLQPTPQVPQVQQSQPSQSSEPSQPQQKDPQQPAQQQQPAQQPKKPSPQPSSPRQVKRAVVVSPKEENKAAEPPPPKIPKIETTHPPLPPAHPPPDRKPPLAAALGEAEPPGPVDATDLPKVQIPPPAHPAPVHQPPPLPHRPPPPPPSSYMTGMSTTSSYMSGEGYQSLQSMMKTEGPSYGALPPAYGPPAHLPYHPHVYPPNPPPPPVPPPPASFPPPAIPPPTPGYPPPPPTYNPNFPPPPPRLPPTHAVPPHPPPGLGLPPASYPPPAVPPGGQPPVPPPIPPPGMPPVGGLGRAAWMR
Procedure: LanthaScreen Eu Kinase Binding Assays are based on the binding and displacement of Alexa Fluor 647-labeled, ATP-competitive kinase inhibitor scaffold (kinase tracer) to the kinase of interest. Binding of the kinase tracer 236 (100 nM) to the CDK13 (5 nM) kinase is detected using a europium-labelled anti- GST tag antibody (2 nM), which binds to the kinase. Simultaneous binding of the tracer and antibody to the kinase results in a high degree of FRET (fluorescence resonance energy transfer) from the europium (Eu) donor fluorophore to the Alexa Fluor™ 647 acceptor fluorophore on the kinase tracer. Binding of an inhibitor to the kinase competes for binding with the tracer, resulting in a loss of FRET signal.

[3] = molecular target: CDK7 (Homo sapiens, UniProt P50613); assay: Biochemical assay for CDK7 (LANCE TR-FRET, ULight-MBP phosphorylation); conditions: CDK7 10 nM, ATP 1 mM/100 μM, 60 min pre-incubation
Sequence of CDK7 (P50613 whole entry, species assumed): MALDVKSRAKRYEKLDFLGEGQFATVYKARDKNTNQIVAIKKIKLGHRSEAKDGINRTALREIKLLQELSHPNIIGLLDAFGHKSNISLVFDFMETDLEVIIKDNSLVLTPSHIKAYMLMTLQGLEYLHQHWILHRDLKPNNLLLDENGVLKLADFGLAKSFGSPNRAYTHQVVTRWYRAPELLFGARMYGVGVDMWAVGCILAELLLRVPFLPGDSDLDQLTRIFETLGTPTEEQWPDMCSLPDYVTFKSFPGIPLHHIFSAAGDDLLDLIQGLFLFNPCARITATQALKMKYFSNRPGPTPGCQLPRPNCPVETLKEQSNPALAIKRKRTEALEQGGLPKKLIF
Sequence of CDK7 (P51946 whole entry partner, species assumed): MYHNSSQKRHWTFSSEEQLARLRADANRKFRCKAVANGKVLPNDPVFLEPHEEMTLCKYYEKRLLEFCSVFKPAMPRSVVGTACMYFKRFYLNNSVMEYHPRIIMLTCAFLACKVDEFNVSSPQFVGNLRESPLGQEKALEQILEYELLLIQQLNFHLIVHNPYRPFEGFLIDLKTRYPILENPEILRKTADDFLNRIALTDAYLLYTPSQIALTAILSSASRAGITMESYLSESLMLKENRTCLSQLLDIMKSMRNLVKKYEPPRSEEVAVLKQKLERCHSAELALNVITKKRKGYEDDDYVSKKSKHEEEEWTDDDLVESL
Sequence of CDK7 (P51948 whole entry partner, species assumed): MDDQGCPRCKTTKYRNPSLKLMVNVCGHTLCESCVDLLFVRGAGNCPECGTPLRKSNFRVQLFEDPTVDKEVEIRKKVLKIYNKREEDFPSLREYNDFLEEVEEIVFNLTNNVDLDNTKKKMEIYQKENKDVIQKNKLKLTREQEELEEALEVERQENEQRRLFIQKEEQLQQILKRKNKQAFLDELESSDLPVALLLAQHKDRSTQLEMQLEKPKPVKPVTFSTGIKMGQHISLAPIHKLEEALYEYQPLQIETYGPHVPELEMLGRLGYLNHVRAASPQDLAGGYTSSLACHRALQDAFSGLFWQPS
Procedure: The inhibitory activity of the test compounds was assessed by the LANCE TR-FRET assay, which detects the ATP-dependent phosphorylation of an ULight-myelin basic protein (MBP) substrate peptide (100 nM) by CDK7 (10 nM). Briefly, the enzyme reaction was run in reaction buffer (20 mM HEPES (pH 7.5), 10 mM MgCl2, 0.01% Triton x, 100 μM Sodium Orthovanadate, 1 mM DTT). The assay was performed in 384-well plate. The end concentration of the ATP substrate was 1 mM/100 μM, and that of the ULight-MBP substrate peptide was 100 nM, and of CDK7 was 10 nM. Pre-incubation of the compound and enzyme was performed for 60 min at room temperature. After 60 min incubation at room temperature, the reaction was terminated by the addition of 40 mM EDTA and 1 nM Eu-labeled anti-phospho-MBP-binding protein antibody in the buffer. Time-resolved fluorescence (excitation, 320 nm; emission donor, 615 nm; emission acceptor, 665 nm) was monitored by using 2030 multilabel reader Victor5 (PerkinElmer). The readout was calculated as (acceptor counts/donor counts)×1000. The IC50 values were derived by fitting a sigmoidal dose-response curve to a plot of assay readout over inhibitor concentration. All fits were computed with the program Prism 5.03 (Graph Pad Software, San Diego, Calif.).

Sequence of CDK12 (Q9NYV4 whole entry, species assumed): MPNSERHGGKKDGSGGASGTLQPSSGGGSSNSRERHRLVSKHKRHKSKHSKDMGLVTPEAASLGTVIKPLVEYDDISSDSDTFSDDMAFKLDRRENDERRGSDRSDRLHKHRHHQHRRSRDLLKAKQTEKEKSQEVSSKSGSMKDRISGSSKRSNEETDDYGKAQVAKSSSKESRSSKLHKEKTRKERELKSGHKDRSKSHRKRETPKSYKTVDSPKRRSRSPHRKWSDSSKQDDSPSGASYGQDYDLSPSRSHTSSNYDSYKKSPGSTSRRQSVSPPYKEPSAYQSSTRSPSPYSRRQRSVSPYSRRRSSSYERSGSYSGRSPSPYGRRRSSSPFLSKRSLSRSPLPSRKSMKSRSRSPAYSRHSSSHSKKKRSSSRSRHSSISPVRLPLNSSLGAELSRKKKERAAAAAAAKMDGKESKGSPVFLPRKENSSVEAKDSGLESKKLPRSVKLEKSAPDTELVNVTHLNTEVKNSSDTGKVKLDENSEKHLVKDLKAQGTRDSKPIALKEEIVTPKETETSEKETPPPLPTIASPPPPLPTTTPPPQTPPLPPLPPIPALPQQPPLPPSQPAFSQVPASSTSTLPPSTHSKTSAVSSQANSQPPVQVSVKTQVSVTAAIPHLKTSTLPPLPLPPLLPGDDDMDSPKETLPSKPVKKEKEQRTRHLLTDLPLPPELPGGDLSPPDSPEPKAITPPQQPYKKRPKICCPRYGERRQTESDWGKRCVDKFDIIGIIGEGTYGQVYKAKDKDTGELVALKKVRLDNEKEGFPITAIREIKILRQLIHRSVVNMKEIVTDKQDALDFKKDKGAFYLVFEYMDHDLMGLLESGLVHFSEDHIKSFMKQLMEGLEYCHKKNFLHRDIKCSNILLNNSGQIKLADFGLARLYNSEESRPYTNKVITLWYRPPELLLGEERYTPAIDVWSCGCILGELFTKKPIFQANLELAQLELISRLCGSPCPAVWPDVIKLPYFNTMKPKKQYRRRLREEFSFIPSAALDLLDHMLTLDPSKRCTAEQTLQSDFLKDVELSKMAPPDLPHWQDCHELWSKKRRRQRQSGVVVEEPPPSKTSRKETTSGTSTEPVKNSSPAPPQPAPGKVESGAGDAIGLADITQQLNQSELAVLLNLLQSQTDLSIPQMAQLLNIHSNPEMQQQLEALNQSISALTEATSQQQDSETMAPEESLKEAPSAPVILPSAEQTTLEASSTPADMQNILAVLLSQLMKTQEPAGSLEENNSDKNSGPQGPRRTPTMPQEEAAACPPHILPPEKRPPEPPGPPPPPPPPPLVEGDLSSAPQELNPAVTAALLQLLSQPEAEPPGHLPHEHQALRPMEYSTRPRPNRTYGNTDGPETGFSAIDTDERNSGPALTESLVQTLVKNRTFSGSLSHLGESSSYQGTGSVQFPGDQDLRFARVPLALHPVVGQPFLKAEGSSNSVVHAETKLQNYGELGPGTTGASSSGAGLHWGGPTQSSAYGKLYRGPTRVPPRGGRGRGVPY

Row | SMILES | Kd [1] | IC50 [2] | IC50 [3]
1 | C=CC(=O)Nc1ccc(-c2ccc(C(C)C(=O)Nc3cc(C4CC4)[nH]n3)cc2)cc1 (racemic) [Compound 1, N-(4′-(1-((5-cyclopropyl-1H-pyrazol-3-yl)amino)-1-oxopropan-2-yl)-[1,1′-biphenyl]-4-yl)acrylamide] | 50 to 500 nM | 24 nM | 11400 nM
2 | C=CC(=O)NCc1ccc(-c2ccc(C(C)C(=O)Nc3cc(C4CC4)[nH]n3)cc2)cc1 (racemic) [Compound 9, N-((4′-(1-((5-cyclopropyl-1H-pyrazol-3-yl)amino)-1-oxopropan-2-yl)-[1,1′-biphenyl]-4-yl)methyl)acrylamide] | > 500 nM | 16.9 nM | 5450 nM
3 | C=CC(=O)NCc1ccc(C(C)C(=O)Nc2cc(C3CC3)[nH]n2)cc1 (racemic) [Compound 23, N-(4-(1-((5-cyclopropyl-1H-pyrazol-3-yl)amino)-1-oxopropan-2-yl)benzyl)acrylamide] | 50 to 500 nM | 280 nM | > 10000 nM
4 | C=CC(=O)Nc1ccc(-c2ccc(C(C)C(=O)Nc3cc(C4CC4)[nH]n3)cc2)cc1 (single isomer, unassigned) [Compound 3, N-(4′-(1-((5-cyclopropyl-1H-pyrazol-3-yl)amino)-1-oxopropan-2-yl)-[1,1′-biphenyl]-4-yl)acrylamide] | – | 18 nM | 1900 nM
5 | C=CC(=O)NCc1ccc(-c2ccc(C(C)C(=O)Nc3cc(C4CC4)[nH]n3)cc2)cc1 (single isomer, unassigned) [Compound 10, N-((4′-(1-((5-cyclopropyl-1H-pyrazol-3-yl)amino)-1-oxopropan-2-yl)-[1,1′-biphenyl]-4-yl)methyl)acrylamide] | > 500 nM | 804 nM | > 10000 nM
6 | C=CC(=O)NCc1ccc(C(C)C(=O)Nc2cc(C3CC3)[nH]n2)cc1 (single isomer, unassigned) [Compound 24, N-(4-(1-((5-cyclopropyl-1H-pyrazol-3-yl)amino)-1-oxopropan-2-yl)benzyl)acrylamide] | 50 to 500 nM | 236 nM | –
7 | C=CC(=O)NCc1ccc(C(C)C(=O)Nc2cc(C3CC3)[nH]n2)cc1 (single isomer, unassigned) [Compound 25, N-(4-(1-((5-cyclopropyl-1H-pyrazol-3-yl)amino)-1-oxopropan-2-yl)benzyl)acrylamide] | > 500 nM | – | –
8 | C=CC(=O)NCc1ccc(C(C)C(=O)Nc2cc(C3CC3)[nH]n2)cn1 (stereo not shown) [Compound 26, N-((5-(1-((5-cyclopropyl-1H-pyrazol-3-yl)amino)-1-oxopropan-2-yl)pyridin-2-yl)methyl)acrylamide] | 50 to 500 nM | 328 nM | –

The next lines start with the values.

Row | Kd [1] | IC50 [2] | IC50 [3] | SMILES
9 | 50 to 500 nM | 500 nM | > 10000 nM | CC(C(=O)Nc1cc(C2CC2)[nH]n1)c1ccc(-c2ccc(NC(=O)/C=C/CN3CCOCC3)nc2)cc1 (single isomer, unassigned) [Compound 6, (E)-N-(5-(4-(1-((5-cyclopropyl-1H-pyrazol-3-yl)amino)-1-oxopropan-2-yl)phenyl)pyridin-2-yl)-4-morpholinobut-2-enamide]
10 | < 50 nM | 5 nM | 1020 nM | CC(C(=O)Nc1cc(C2CC2)[nH]n1)c1ccc(-c2ccc(NC(=O)/C=C/CN3CCOCC3)nc2)cc1 (single isomer, unassigned) [Compound 7, (E)-N-(5-(4-(1-((5-cyclopropyl-1H-pyrazol-3-yl)amino)-1-oxopropan-2-yl)phenyl)pyridin-2-yl)-4-morpholinobut-2-enamide]
11 | – | 96 nM | 2120 nM | C=CC(=O)NCc1ccc(-c2ccc(C(C)C(=O)Nc3cc(C4CC4)[nH]n3)cc2)cc1 (single isomer, unassigned) [Compound 11, N-((4′-(1-((5-cyclopropyl-1H-pyrazol-3-yl)amino)-1-oxopropan-2-yl)-[1,1′-biphenyl]-4-yl)methyl)acrylamide]
12 | > 500 nM | 2060 nM | > 10000 nM | CC(C(=O)Nc1cc(C2CC2)[nH]n1)c1ccc(-c2ccc(CNC(=O)/C=C/CN3CCOCC3)nc2)cc1 (single isomer, unassigned) [Compound 13, (E)-N-((5-(4-(1-((5-cyclopropyl-1H-pyrazol-3-yl)amino)-1-oxopropan-2-yl)phenyl)pyridin-2-yl)methyl)-4-morpholinobut-2-enamide]
13 | < 50 nM | 3.9 nM | 1120 nM | CC(C(=O)Nc1cc(C2CC2)[nH]n1)c1ccc(-c2ccc(CNC(=O)/C=C/CN3CCOCC3)nc2)cc1 (single isomer, unassigned) [Compound 14, (E)-N-((5-(4-(1-((5-cyclopropyl-1H-pyrazol-3-yl)amino)-1-oxopropan-2-yl)phenyl)pyridin-2-yl)methyl)-4-morpholinobut-2-enamide]
14 | > 500 nM | 212 nM | > 10000 nM | CC(C(=O)Nc1cc(C2CC2)[nH]n1)c1ccc(-c2ccc(CNC(=O)/C=C/CN3CCOCC3)cc2)cc1 (single isomer, unassigned) [Compound 16, (E)-N-((4′-(1-((5-cyclopropyl-1H-pyrazol-3-yl)amino)-1-oxopropan-2-yl)-[1,1′-biphenyl]-4-yl)methyl)-4-morpholinobut-2-enamide]
15 | < 50 nM | 53.6 nM | 1560 nM | CC(C(=O)Nc1cc(C2CC2)[nH]n1)c1ccc(-c2ccc(CNC(=O)/C=C/CN3CCOCC3)cc2)cc1 (single isomer, unassigned) [Compound 17, (E)-N-((4′-(1-((5-cyclopropyl-1H-pyrazol-3-yl)amino)-1-oxopropan-2-yl)-[1,1′-biphenyl]-4-yl)methyl)-4-morpholinobut-2-enamide]
16 | – | 4 nM | – | C=CC(=O)NCc1ccc(-c2ccc(C(C)C(=O)Nc3cc(C4CC4)[nH]n3)cn2)cn1 (stereo not shown) [Compound 4, N-((5-(1-((5-cyclopropyl-1H-pyrazol-3-yl)amino)-1-oxopropan-2-yl)[2,3′-bipyridin]-6′-yl)methyl)acrylamide]
17 | – | 24 nM | 1700 nM | CC(C(=O)Nc1cc(C2CC2)[nH]n1)c1ccc(-c2ccc(NC(=O)/C=C/CN3CCOCC3)nc2)cc1 (stereo not shown) [Compound 5, (E)-N-(5-(4-(1-((5-cyclopropyl-1H-pyrazol-3-yl)amino)-1-oxopropan-2-yl)phenyl)pyridin-2-yl)-4-morpholinobut-2-enamide]
18 | < 50 nM | 60.8 nM | – | CC(C(=O)Nc1cc(C2CC2)[nH]n1)c1ccc(-c2ccc(NC(=O)/C=C/CN3CCOCC3)cc2)cc1 (stereo not shown) [Compound 12, (E)-N-(4′-(1-((5-cyclopropyl-1H-pyrazol-3-yl)amino)-1-oxopropan-2-yl)-[1,1′-biphenyl]-4-yl)-4-morpholinobut-2-enamide]
19 | < 50 nM | 257 nM | 3660 nM | CC(C(=O)Nc1cc(C2CC2)[nH]n1)c1ccc(-c2ccc(CNC(=O)/C=C/CN3CCOCC3)cc2)cc1 (stereo not shown) [Compound 15, (E)-N-((4′-(1-((5-cyclopropyl-1H-pyrazol-3-yl)amino)-1-oxopropan-2-yl)-[1,1′-biphenyl]-4-yl)methyl)-4-morpholinobut-2-enamide]
20 | < 50 nM | 13 nM | – | C=CC(=O)NC(CC)c1ccc(-c2ccc([C@H](C)C(=O)Nc3cc(C4CC4)[nH]n3)cc2)cn1 (stereo partly drawn) [Compound 19, N-(1-(5-(4-((S)-1-((5-cyclopropyl-1H-pyrazol-3-yl)amino)-1-oxopropan-2-yl)phenyl)pyridin-2-yl)propyl)acrylamide]
